What all share (assay type): biochemical
In experiment [1] the test system is Thermus sp. T351 esterase E100. As to the kind of experiment: Inhibition by reaction components on the hydrolysis of p-nitrophenylproprionate by E100. As for the experimental part:
Measurement of E100 Enzyme Activity--Esterase activity is measured by monitoring the hydrolysis of p-nitrophenylproprionate (pNP), or in some cases MUB. Each substrate is dissolved in acetonitrile and added to the reaction mixture (100 μM final concentration) which contain 50 mM Tris HCl pH 8.5 adjusted for temperature dependent pH variation. Reactions are thermally equilibrated at 37° C. for 5 minutes prior to initiation of the reaction by addition of 10 μL of enzyme sample, while control reactions substituted equivalent amounts of BSA. The reaction is monitored spectrophotometrically at 405 nm ε=17 mM^-1 cm^-1 for pNP and 360 nm ε=7.9 mM^-1 cm^-1 for MUB.
The rates of enzyme catalyzed hydrolysis are corrected for the spontaneous hydrolysis of the substrate. Protein concentrations are determined by either the absorbance at 280 nm or by Lowery assay. Crude activity is determined by a colorimetric assay based on the hydrolysis of 5-bromo-4-chloro-3-indoyl esters suspended in a 0.7% agar matrix on microtiter plates. A 0.1 mg/ml solution of the indolyl derivative is dissolved in a minimal volume of acetonitrile and added to a warm solution of 0.7% agar containing 0.1M phosphate buffer pH 7.5. 10 μL of this solution is distributed to microtiter plates which, when cooled, could be used with as much as 100 μL of enzyme sample and incubated at temperatures from ambient to >65° C.

Experiment [2] concerns Thermus sp. T351 esterase E101.
Experiment [3] relates to Thermus sp. T351 esterase E100. Briefly: Kinetic analysis of E100: concentration-dependent initial rates of nitrophenyl proprionate hydrolysis. The following applies: p-NP as substrate, pH 8.5, 50 mM Tris-HCl, 37° C. Here is the method: FIG. 6. Kinetic analysis of E100.
Determination of Kinetic Characteristics--Kinetic characteristics are determined by measuring the concentration dependent initial rates of enzyme catalyzed hydrolysis of nitrophenyl proprionate. Reactions are run at pH 8.5 in 50 mM Tris-HCl buffer equilibrated to 37° C. and initiated by addition of enzyme. Rates are determined from the absorbance changes due to formation of product nitrophenol at 405 nm. Rates are corrected for the spontaneous hydrolysis of substrate during the course of the reaction. Concentration vs. rate data are analyzed by both double reciprocal plots and by HanesWolff plots to determine Km, Vmax and Vmax/Km.

In general, Km refers to the concentration of substrate that gives half-maximal velocity.

For `Cc1ccc(S(=O)(=O)F)cc1` [tosyl fluoride], in experiment [1], the “Inhibition of E100 (in words)” value is “effectively inhibited”. As to `OCCS` [BME, β-mercaptoethanol], the “Relative Rate” value in experiment [1] (additive 10 mM, None = 100, substrate p-nitrophenylproprionate) is given as 99%. Regarding `O=S(=O)(F)Cc1ccccc1` [PMSF], the “Relative Rate” value in experiment [1] (additive 0.1 mM, None = 100, substrate p-nitrophenylproprionate) was 0%. In experiment [2], the “Inhibition of E101 (in words)” value is recorded as “inhibited”. Take `CCC(=O)Oc1ccc([N+](=O)[O-])cc1` [p-NP, p-nitrophenylproprionate]: in experiment [3], the Vmax was 1.8×10^-5 Mmin^-1. For the same compound, the Km in experiment [3] (Lineweaver-Burke and Eadie-Hofstee analysis) stood at 72 µM. Turning to `O=C(O)CN(CCN(CC(=O)O)CC(=O)O)CC(=O)O` [EDTA], the “Relative Rate” value in experiment [1] (pH 8.5, 1000 µM) is 96.
